Data published in patent US20230265391A1, “METHODS AND COMPOSITIONS FOR MAKING AND USING ENDOCARDIAL CELLS” (University Health Network, priority 2020, published 2023).

Experiments:
Type in all cases: cell-based, human
[1] = tested on: NKX2-5+ CD31+ cells; test: Generation of NKX2-5+ CD31+ cells from hPSC-derived cardiogenic mesoderm (flow cytometry)
Protocol: To generate endocardial/endothelial cells, hPSCs were differentiated to cardiogenic mesoderm using the protocol described above. At day 3, the EBs were dissociated with TrypLE for 3 min at 37° C. and the cells plated in 96-well flat bottom microplates (Falcon) coated with Matrigel (25% v/v, Corning) at a density of 10e5 cells per well. The monolayers were cultured in StemPro-34 supplemented with penicillin/streptomycin (1%, ThermoFisher), L-glutamine (2 mM, ThermoFisher), ascorbic acid (50 μg/ml, Sigma), monothioglycerol (50 μg/ml, Sigma), transferrin (150 μg/ml, ROCHE) and rhbFGF (50 ng/ml, R&D). For endocardial induction, rhBMP10 (10 ng/ml) was added to the media from day 5 to day 9. For generation of control endothelial cells, VEGFA (100 ng/mL, R&D) was added to the differentiation media from day 3 to day 9. The cultures were incubated in a low oxygen environment (5% CO2, 5%O2, 90% N2) and the media was changed every 2 days. At day 9, HES3-NKX2-5eGFP/w-derived endocardial/endothelial cells were analyzed and isolated based on the expression of NKX2-5:GFP and CD31. The endocardial cells generated from the non-transgenic hPSC lines were analyzed and isolated as CD31+ populations. For dissociation, the monolayers were incubated in Collagenase type 2 (1 mg/ml, Worthington) in HANKs buffer at 37° C. for one hour.
Day 3 EBs were dissociated with TrypLE for 3 min at 37° C. Day 9-23 EBs or mixed populations of cardiomyocytes and endocardial/endothelial cells were dissociated by incubation in Collagenase type 2 (1 mg/ml, Worthington) in HANKS buffer at 37° C. for one hour followed by TrypLE treatment (5 min at 37° C.). The following antibodies were used for staining: anti-SIRPA-PeCy7 (Biolegend, 1:1000), anti-CD31-PE (BD Pharmingen, 1:100), anti-CD31-FITC (BD Pharmingen, 1:100), anti-CD31-AF647 (BD Pharmingen, 1:100), anti-CD90-APC (BD Pharmingen, 1:1000), anti-PDGFRB-BV421 (BD Pharmingen, 1:100), anti-CD105-APC (eBioscience, 1:200), anti-CD56-APC (BD Pharmingen, 1:100), anti-PDGFRA-PE (BD Pharmingen, […]), anti-CD36-APC (Biolegend, 1:100), anti-LDLR-BV421 (Biolegend, 1:100), anti-cardiac isoform of CTNT (ThermoFisher Scientific, 1:2000), or anti-myosin light chain 2 (Abcam, 1:1000), anti-ANP (Abcam, 1:500). For unconjugated primary antibodies, the following secondary antibodies were used for detection: goat anti-mouse IgG-APC (BD Pharmigen, 1:250), or donkey anti-rabbit IgG-AF488 (ThermoFisher Scientific, 1:1000). Detailed antibody information is described in the Key Resources Table. For cell-surface marker analyses, cells were stained for 30 min at 4° C. in FACS buffer consisting of PBS with 5% fetal calf serum (FCS) (Wisent) and 0.02% sodium azide. For intracellular staining, cells were fixed for 15 min at 4° C. with 4% PFA in PBS followed by permeabilization using 90% methanol for 20 min at 4° C. Cells were washed with PBS containing 0.5% BSA (Sigma) and stained with unconjugated primary antibodies in FACS buffer overnight at 4° C. Stained cells were washed with PBS with 0.5% BSA and stained with secondary antibodies in FACS buffer for 1 h at 4° C. Stained cells were analyzed using an LSR II Flow cytometer (BD). For cell sorting, cells were stained, washed and kept in IMDM with 0.2% KnockOut™ serum replacement and sorted using either Influx (BD), FACSAriaII (BD), MoFlo-XDP (BD) of FACSAria Fusion (BD) cells sorter at the Sickids/UHN flow cytometry facility. Data were analyzed using FlowJo software (Tree Star).
Initial experiments were set up to identify the signaling pathways that would promote the generation of a NKX2-5+ CD31+ cell that we propose represents the earliest stage of human endocardial development. The transgenic HES3-NKX2-5eGFP/w reporter line (Elliott et al., 2011, Nat. Methods, 8(12):1037-40) was used to allow for the identification of NKX2-5+ cells by flow cytometry. […]

[2] = tested on: NKX2-5+ CD31+ endocardial-like cells and SIRPA+ cardiomyocytes; test: Co-culture of NKX2-5+ CD31+ endocardial-like cells (HES3-NKX2-5eGFP/w) with SIRPA+ cardiomyocytes
Protocol: (§1) For culture in the absence of cardiomyocytes, the endocardial or control endothelial cells (HES3-NKX2-5eGFP/w line) isolated at day 9 of differentiation were plated in a 96-well flat bottom microplate (Falcon) coated with Matrigel (25% v/v, Corning) at a density 2.5×10e4 cells per well in StemPro-34 supplemented with penicillin/streptomycin (1%, ThermoFisher), L-glutamine (2 mM, ThermoFisher), ascorbic acid (50 μg/ml, Sigma), monothioglycerol (50 μg/ml, Sigma), rhVEGFA (100 ng/ml, R&D) with or without rhBMP10 (10 ng/ml) or rhBMP4 (10 ng/ml). For co-culture of the two cell types, 5×10e4 hPSC-derived SIRPA+ cardiomyocytes (day 9) were mixed together with either 2.5×10e4 HES3-NKX2-5eGFP/w- or 5×10e4 HES2:RFP-derived endocardial or endothelial cells and cultured for 8 days in 96-well flat bottom microplates (Falcon) coated with Matrigel (25% v/v, Corning) in StemPro-34 supplemented with penicillin/streptomycin (1%, ThermoFisher), L-glutamine (2 mM, ThermoFisher), ascorbic acid (50 μg/ml, Sigma), monothioglycerol (50 μg/ml, Sigma) and rhVEGFA (100 ng/ml, R&D). For inhibition of the NRG-ERBB pathway lapatinib (10 μM, LC labs) was added to the media. Control cardiomyocytes were cultured as aggregates as described above in the same media with or without NRG1 (50 ng/ml). The cultures were incubated in a normoxic environment (5% CO2) and the media was changed every 2 days. […]

[3] = tested on: RFP+ CD31+ endocardial-like cells and SIRPA+ cardiomyocytes; test: Co-culture of HES2-RFP CD31+ endocardial-like cells with HES2-GFP SIRPA+ cardiomyocytes; conditions: lapatinib 10 μM, 8 days co-culture, VEGFA 100 ng/ml
Protocol: as §1

[4] = tested on: NKX2-5+ CD31+ cells; test: Generation of NKX2-5+ CD31+ cells from hPSC-derived cardiogenic mesoderm (flow cytometry); conditions: BMP alone (10 ng/ml) in the absence of bFGF; day 9
[5] = tested on: NKX2-5+ CD31+ endocardial-like cells; test: 8-day culture of sorted day 9 NKX2-5+ CD31+ endocardial-like or control endothelial cells with VEGFA and BMP
Protocol: For culture in the absence of cardiomyocytes, the endocardial or control endothelial cells (HES3-NKX2-5eGFP/w line) isolated at day 9 of differentiation were plated in a 96-well flat bottom microplate (Falcon) coated with Matrigel (25% v/v, Corning) at a density 2.5×10e4 cells per well in StemPro-34 supplemented with penicillin/streptomycin (1%, ThermoFisher), L-glutamine (2 mM, ThermoFisher), ascorbic acid (50 μg/ml, Sigma), monothioglycerol (50 μg/ml, Sigma), rhVEGFA (100 ng/ml, R&D) with or without rhBMP10 (10 ng/ml) or rhBMP4 (10 ng/ml). For co-culture of the two cell types, 5×10e4 hPSC-derived SIRPA+ cardiomyocytes (day 9) were mixed together with either 2.5×10e4 HES3-NKX2-5eGFP/w- or 5×10e4 HES2:RFP-derived endocardial or endothelial cells and cultured for 8 days in 96-well flat bottom microplates (Falcon) coated with Matrigel (25% v/v, Corning) in StemPro-34 supplemented with penicillin/streptomycin (1%, ThermoFisher), L-glutamine (2 mM, ThermoFisher), ascorbic acid (50 μg/ml, Sigma), monothioglycerol (50 μg/ml, Sigma) and rhVEGFA (100 ng/ml, R&D). For inhibition of the NRG-ERBB pathway lapatinib (10 μM, LC labs) was added to the media. Control cardiomyocytes were cultured as aggregates as described above in the same media with or without NRG1 (50 ng/ml). The cultures were incubated in a normoxic environment (5% CO2) and the media was changed every 2 days.
To further investigate differences between these pathway agonists, BMP10-induced NKX2-5+ CD31+ cells were cultured in the presence of different concentrations of either BMP4 or BMP10 for 8 days. VEGFA was added to maintain the endothelial phenotype of the cells during this culture period.

Cc1c[nH]c(-c2cnc(NCCNc3ccc(C#N)cn3)nc2-c2ccc(Cl)cc2Cl)n1 [CHIR99021, reference compound]
total number of NKX2-5+ CD31+ cells produced ([1]; 1 μM CHIR99021 for 2, 4 or 6 days from day 3, day 9): did not impact
frequency of NKX2-5+ CD31+ cells ([1]; 1 μM CHIR99021 for 6 days from day 3, day 9): decrease

Cc1ccc2nc(NC(=O)CSc3nc4c(c(=O)n3-c3ccccc3)SCC4)sc2c1 [IWP2, reference compound]
total number of NKX2-5+ CD31+ cells ([1]; IWP2 added for 4 or 6 days from day 3, day 9): reduced
frequency of NKX2-5+ CD31+ cells generated ([1]; Wnt inhibition, 2 μM IWP2 for 2, 4 or 6 days from day 3, day 9 read-out): significant reduction

c1ccc2c(-c3cnn4cc(-c5ccc(N6CCNCC6)cc5)cnc34)ccnc2c1 [LDN193189]
NKX2-5 expression in endocardial cells ([2]; cells isolated from co-cultures and cells treated with BMP10, 8 days, different concentrations of LDN193189): partial downregulation

CS(=O)(=O)CCNCc1ccc(-c2ccc3ncnc(Nc4ccc(OCc5cccc(F)c5)c(Cl)c4)c3c2)o1 [lapatinib]
induction of the trabecular fate by NKX2-5+ CD31+ endocardial-like cells ([2]; lapatinib 10 μM, 8 days co-culture, VEGFA 100 ng/ml): inhibited
induction of trabecular myocardium markers by RFP+ CD31+ endocardial-like cells [3]: inhibited

BMP10: Recombinant human BMP10 (R&D)
populations containing CD31+ cells [4]: None
NRG1 levels in cultured NKX2-5+ CD31+ cells ([5]; 8 days, BMP10 10 ng/ml versus BMP4 10 ng/ml, VEGFA 100 ng/ml): sustained higher levels
maintaining the NKX2-5+ CD31+ cell phenotype ([5]; 8 days, VEGFA 100 ng/ml, all concentrations of agonist tested): more effective than BMP4
NRG1 expression in control endothelial population ([5]; BMP10 added during 8-day culture): did not lead to the upregulation
proportion of NKX2-5+ CD31+ cells generated ([1]; BMP 10 ng/ml paired with exogenous bFGF, day 9): significantly increased
NRG1 expression in induced NKX2-5+ CD31+ population (RT-qPCR) ([1]; BMP10-induced versus BMP4-induced cells): higher levels
fraction of CD105+ cells ([1]; BMP10-induced versus BMP4-induced or control endothelial populations): much larger fraction
total number of NKX2-5+ CD31+ cells at days 8 and 9 ([1]; BMP10-induced versus BMP4-treated populations): significantly higher
day of emergence of NKX2-5+ CD31+ cells ([1]; BMP agonist with bFGF, populations persisted to day 12): 8 days
concentration inducing the highest frequency and number of NKX2-5+ CD31+ cells ([1]; days 5-9, in presence of bFGF 50 ng/ml): 10 ng/mL
